For the experiment, the system named is dopamine release, synaptosomes from the striatal area of rat brain. The experiment can be described thus: Dopamine release from rat striatal synaptosomes. It is filed as biochemical, rat (Sprague-Dawley). Particulars: [3H]-dopamine release, relative to (S)-(-)-nicotine. As to the method: Determination of Dopamine Release
Dopamine release was measured by preparing synaptosomes from the striatal area of rat brain obtained from Sprague-Dawley rats generally according to the procedures set forth by Nagy et al., J. Neurochem., Vol. 43, pp. 1114-1123 (1984). Striata from 4 rats were homogenized in 2 ml of 0.32M sucrose buffered with 5 mM HEPES (pH 7.5), using a glass-Teflon tissue grinder. The homogenate was diluted to 5 ml with additional homogenization solution and centrifuged at 1,000 x g for 10 min. This procedure was repeated on the new pellet and the resulting supernatant was centrifuged at 12,000 x g for 20 min. A 3 layer discontinuous Percoll gradient consisting of 16 percent, 10 percent and 7.5 percent Percoll in HEPES-buffered sucrose was made with the final pellet dispersed in the top layer. After centrifugation at 15,000 x g for 20 min., the synaptosomes were recovered above the 16 percent layer with a Pasteur pipette, diluted with 8 ml of perfusion buffer (128 mM NaCl, 2.4 mM KCl, 3.2 mM CaCl2, 1.2 mM KH2 PO4, 1.2 mM MgSO4, 25 mM HEPES pH 7.4, 10 mM dextrose, 1 mM ascorbate, 0.01 mM pargyline), and centrifuged at 15,000 x g for 20 min. The new pellet was collected and re-suspended in perfusion buffer. The synaptosome suspension was incubated for 10 min. at 37° C. [^3 H]-Dopamine (Amersham, 40-60 Ci/mmol) was added to the suspension to give a final concentration of 0.1 uM, and the suspension was incubated for another 5 min. Using this method, 30 to 90 percent of the dopamine was taken up into the synaptosomes, as determined by scintillation counting following filtration through glass fiber filters soaked with 0.5 percent polyethyleneimine. A continuous perfusion system was used to monitor release following exposure to each ligand. Synaptosomes were loaded onto glass fiber filters (Gelman type A/E). Perfusion buffer was dripped onto the filters (0.2-0.3 ml/min.) and pulled through the filters with a peristaltic pump. Synaptosomes were washed with perfusion buffer for a minimum of 20 min. before addition of the ligand. After the addition of 0.2 ml of a solution containing various concentrations of ligand, the perfusate was collected into scintillation vials at 1 min. intervals and the dopamine released was quantified by scintillation counting. Peaks of radioactivity released above background were summed and the average basal release during that time was subtracted from the total.
As to `CNCC/C=C/c1cccnc1` [Sample No. C-2, (E)-metanicotine, reference compound], the “Dopamine Release Emax” value came to 80 % nicotine.

Regarding `CNCC/C=C/c1ccc(C)nc1` [Sample No. 6, (E)-N-methyl-4-[3-(6-methylpyrindin)yl]-3-butene-1-amine], the “Dopamine Release Emax” value is recorded as 60 % nicotine.

Take `NCC/C=C/c1cncnc1.O=C(O)/C=C/C(=O)O` [Sample No. 1, (E)-4-(5-pyrimidinyl)-3-butene-1-amine monofumarate]: the “Dopamine Release Emax” value was determined as 113 % nicotine.

Take `CNCC/C=C\c1cccnc1` [Sample No. 5, (Z)-metanicotine]: the “Dopamine Release Emax” value turned out to be 88 % nicotine.

`CNCC/C=C/c1cncnc1` [Sample No. 2, (E)-N-methyl-4-(5-pyrimidinyl)-3-butene-1-amine]: the “Dopamine Release Emax” value is reported as 77 % nicotine.

For `COc1cncc(/C=C/CCN)c1` [Sample No. 3, (E)-4-[3-(5-methoxypyridin)yl]-3-butene-1-amine monofumarate], the “Dopamine Release Emax” value was found to be 95 % nicotine.

Turning to `CN1CCC[C@H]1c1cccnc1` [Sample No. C-1, (S)-(-)-nicotine, reference compound], the “Dopamine Release Emax” value is 100 % nicotine.

With `CNCCC#Cc1cccnc1` [Sample No. 4, N-Methyl-4-(3-pyridinyl)-3-butyne-1-amine], the “Dopamine Release Emax” value is 87 % nicotine.

The record behind these values is patent US5824692A (priority 1995, dated 1998).
